The source of these data is the supplement of paper PMC4862054.

Common to all, as to experiment: normalised viability (% of control), CellTiter-Blue; higher = more viable cells (about 100 = DMSO control)
Common to all, as to conditions: incubation time: 72 h

Experiment [1] has as its system MDA-MB-453. As for the experimental part: (§1)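 DSRT, CellTiter-Blue viability, 72 h incubation. Signal is normalised to DMSO and benzethonium chloride controls. Value is the normalised response at dose 6.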
Experiment [2] relates to CAL-148. The procedure: as §1
For experiment [3], the system named is CAL-51. The procedure: as §1
Experiment [4] concerns HDQ-P1. The procedure: as §1
Experiment [5] has as its system CAL-85-1. As for the experimental part:
as §1

For experiment [6], the system named is DU-4475. The procedure:
as §1

The test system of experiment [7] is MDA-MB-453. The procedure:
(§2)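 DSRT, CellTiter-Blue viability, 72 h incubation. Signal is normalised to DMSO and benzethonium chloride controls. Value is the normalised response at dose 7.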
The source holds these as a separate data set.

In experiment [8] the test system is CAL-148. The procedure: as §2
This is another data set of the same source.

The test system of experiment [9] is CAL-51. As for the experimental part:
as §2
The source holds these as a separate data set.

Experiment [10] relates to HDQ-P1. The procedure:
as §2
The source holds these as a separate data set.

Experiment [11] concerns CAL-85-1. As for the experimental part: as §2
The source holds these as a separate data set.

The subject of experiment [12] is DU-4475. As for the experimental part: as §2
The source holds these as a separate data set.

In the case of `CC[C@@]1(O)C(=O)OCc2c1cc1n(c2=O)Cc2cc3ccccc3nc2-1` [Camptothecin] (150 nM), the normalised viability amounted to 50.7% in the experiment with MDA-MB-453 [1]; 12.8% in the experiment on CAL-148 [2]; 12.7% with CAL-51 [3]; 48.3% with HDQ-P1 [4]; 61% in the experiment with CAL-85-1 [5]; 13.9% in the experiment with DU-4475 [6].
On to `CC(=O)O[C@H]1C(=O)[C@@]2(C)[C@H]([C@H](OC(=O)c3ccccc3)[C@]3(O)C[C@H](OC(=O)[C@H](O)[C@@H](NC(=O)c4ccccc4)c4ccccc4)C(C)=C1C3(C)C)[C@]1(OC(C)=O)CO[C@@H]1C[C@@H]2O` [Paclitaxel] (30 nM), for which the normalised viability in the experiment on MDA-MB-453 [1] came out at 26.1%; with CAL-148 [2] it was 20.8%; in the experiment with CAL-51 [3], 38.8%; with HDQ-P1 [4], 33.7%; in the experiment on CAL-85-1 [5], 32.6%; in the experiment with DU-4475 [6], 39.6%.
With `CC[C@@]1(O)C(=O)OCc2c1cc1n(c2=O)Cc2cc3ccccc3nc2-1` [Camptothecin] (500 nM), the normalised viability stood at 23.7% with MDA-MB-453 [7]; 8% in the experiment with CAL-148 [8]; 5.8% in the experiment on CAL-51 [9]; 50.3% with HDQ-P1 [10]; 40% in the experiment with CAL-85-1 [11]; 10.7% in the experiment with DU-4475 [12].
For `COc1cccc2c1C(=O)c1c(O)c3c(c(O)c1C2=O)C[C@@](O)(C(C)=O)C[C@@H]3O[C@H]1C[C@H](N)[C@H](O)[C@H](C)O1` [Daunorubicin] (30 nM), the normalised viability was found to be 93.7% in the experiment on MDA-MB-453 [1]; 59.5% in the experiment on CAL-148 [2]; 54.5% in the experiment on CAL-51 [3]; 74.9% with HDQ-P1 [4]; 94.6% in the experiment on CAL-85-1 [5]; 64.7% in the experiment with DU-4475 [6].
`CCS(=O)(=O)c1cccc(-c2cc(C(=O)NC3CCN(C)CC3)c(C)c3[nH]c4ncc(C)cc4c23)c1` [TAK-901] (30 nM): the normalised viability in the experiment on MDA-MB-453 [1] was determined as 55.5%; with CAL-148 [2], 42.2%; in the experiment with CAL-51 [3], 78.1%; with HDQ-P1 [4], 96.5%; with CAL-85-1 [5], 79.4%; in the experiment on DU-4475 [6], 90.6%.
Consider `c1ccc(C2CN3CCSC3=N2)cc1` (centres undefined) [Tetramisole] (300 nM), for which the normalised viability with MDA-MB-453 [1] amounted to 103%; in the experiment with CAL-148 [2], 102%; in the experiment on CAL-51 [3], 93.3%; with HDQ-P1 [4] it was 129%; in the experiment on CAL-85-1 [5], 102%; in the experiment with DU-4475 [6], 98.6%.
As for `Cn1cnc2c(F)c(Nc3ccc(Br)cc3F)c(C(=O)NOCCO)cc21` [MEK-162] (30 nM), the normalised viability in the experiment on MDA-MB-453 [1] is 118%; in the experiment with CAL-148 [2], 95.1%; in the experiment with CAL-51 [3] it was 96.5%; with HDQ-P1 [4] it was 47.6%; in the experiment on CAL-85-1 [5], 101%; with DU-4475 [6], 61.2%.
In the case of `O=P(O)(NCCCl)NCCCl` [Ifosfamide mustard] (300 nM), the normalised viability turned out to be 114% in the experiment on MDA-MB-453 [1]; 110% in the experiment with CAL-148 [2]; 100% in the experiment on CAL-51 [3]; 54% with HDQ-P1 [4]; 98% in the experiment on CAL-85-1 [5]; 92.7% in the experiment with DU-4475 [6].
`COc1cc(Nc2ncc(F)c(Nc3ccc4c(n3)NC(=O)C(C)(C)O4)n2)cc(OC)c1OC` [R406] (1000 nM): the normalised viability in the experiment on MDA-MB-453 [7] is 96.4%; in the experiment on CAL-148 [8], 97.2%; in the experiment on CAL-51 [9], 112%; with HDQ-P1 [10], 103%; in the experiment on CAL-85-1 [11], 84.7%; in the experiment with DU-4475 [12], 105%.
For `CN1CCN(c2ccc3nc(-c4c(N)c5c(F)cccc5[nH]c4=O)[nH]c3c2)CC1` [Dovitinib] (300 nM), the normalised viability worked out at 94.5% with MDA-MB-453 [1]; 98.7% with CAL-148 [2]; 109% in the experiment on CAL-51 [3]; 54.7% with HDQ-P1 [4]; 86.9% in the experiment with CAL-85-1 [5]; 86.5% in the experiment on DU-4475 [6].
Consider `C[C@@]1(C(=O)Nc2ccc(F)nc2)CCCN1c1nc(Nc2cc(C3CC3)n[nH]2)c2cccn2n1` (300 nM), for which the normalised viability in the experiment on MDA-MB-453 [1] was found to be 84.6%; in the experiment on CAL-148 [2], 95.7%; in the experiment on CAL-51 [3] it was 88.3%; with HDQ-P1 [4], 50.3%; in the experiment with CAL-85-1 [5] it was 65.7%; in the experiment on DU-4475 [6], 77.7%.
For `COc1cc(Nc2ncc(F)c(Nc3ccc4c(n3)NC(=O)C(C)(C)O4)n2)cc(OC)c1OC` [R406] (300 nM), the normalised viability in the experiment on MDA-MB-453 [1] turned out to be 109%; in the experiment with CAL-148 [2], 108%; in the experiment on CAL-51 [3], 114%; in the experiment with HDQ-P1 [4], 102%; in the experiment on CAL-85-1 [5], 98.3%; in the experiment on DU-4475 [6] it was 87.5%.
For `CS(=O)(=O)OCCCCOS(C)(=O)=O` [Busulfan] (3000 nM), the normalised viability in the experiment with MDA-MB-453 [1] is 99.9%; in the experiment on CAL-148 [2] it was 114%; in the experiment on CAL-51 [3] it was 92.8%; with HDQ-P1 [4] it was 83%; with CAL-85-1 [5] it was 106%; in the experiment on DU-4475 [6] it was 76%.
`COc1c(C)cnc(Cn2cnc3c(Cl)nc(N)nc32)c1C` [BIIB021] (300 nM): the normalised viability with MDA-MB-453 [1] was found to be 17.3%; in the experiment with CAL-148 [2], 29.5%; with CAL-51 [3], 57.6%; with HDQ-P1 [4], 60.8%; in the experiment with CAL-85-1 [5] it was 56.8%; in the experiment on DU-4475 [6], 0.39%.
